This note sets out measurements from US11780893B2, “Kv1.3 blockers” (Zealand Pharma A/S, priority 2019, dated 2023).

Structures are written as SMILES. Where two headings read alike, the source gives them in different places. Bridge positions count the residues as written; N and C are the ends. Square brackets hold non-standard residues; d marks the D form. Peptide text beside a SMILES is read from it. Nle = CCCC[C@H](N)C(=O)O

Assay [1] addresses T1, human Kv1.3 voltage-gated K+ channel (Homo sapiens, UniProt P22001).
T1 construct: host or cells: CHO-DUKX
The assay can be described thus: cell-based. As to conditions: inhibition of thallium flux, CHO-DUKX cells with human Kv1.3; read-out: IC50.

Assay [2] deals with T2, Kv1.3 (Homo sapiens, UniProt P22001).
T2 construct: expressed in transfected cells; host or cells: Chinese Hamster Ovary (CHO)
T2 sequence (P22001 whole entry): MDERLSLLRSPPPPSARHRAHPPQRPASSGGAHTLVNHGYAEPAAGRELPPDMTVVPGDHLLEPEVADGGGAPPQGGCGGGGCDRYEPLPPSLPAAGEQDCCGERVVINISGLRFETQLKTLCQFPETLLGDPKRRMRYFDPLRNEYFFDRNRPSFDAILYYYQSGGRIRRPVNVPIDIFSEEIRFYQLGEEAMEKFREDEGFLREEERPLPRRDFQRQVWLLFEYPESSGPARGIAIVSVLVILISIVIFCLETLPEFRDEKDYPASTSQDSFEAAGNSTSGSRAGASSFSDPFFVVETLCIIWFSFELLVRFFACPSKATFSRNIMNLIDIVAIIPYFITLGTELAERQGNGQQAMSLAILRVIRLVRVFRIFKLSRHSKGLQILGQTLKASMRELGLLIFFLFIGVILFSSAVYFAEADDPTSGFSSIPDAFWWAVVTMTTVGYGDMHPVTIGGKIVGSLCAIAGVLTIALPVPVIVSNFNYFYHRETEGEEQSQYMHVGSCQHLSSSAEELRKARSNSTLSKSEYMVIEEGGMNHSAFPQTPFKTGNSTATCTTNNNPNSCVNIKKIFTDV
In words: cell-based. As to conditions: CHO cells, whole-cell patch clamp; read-out: Potency IC50 (nM) Kv1.3.

Assay [3] addresses Rat whole blood (Rattus norvegicus, UniProt P15384).

T1 sequence (P22001 whole entry): as above
Chain of Rat whole blood (P15384 whole entry): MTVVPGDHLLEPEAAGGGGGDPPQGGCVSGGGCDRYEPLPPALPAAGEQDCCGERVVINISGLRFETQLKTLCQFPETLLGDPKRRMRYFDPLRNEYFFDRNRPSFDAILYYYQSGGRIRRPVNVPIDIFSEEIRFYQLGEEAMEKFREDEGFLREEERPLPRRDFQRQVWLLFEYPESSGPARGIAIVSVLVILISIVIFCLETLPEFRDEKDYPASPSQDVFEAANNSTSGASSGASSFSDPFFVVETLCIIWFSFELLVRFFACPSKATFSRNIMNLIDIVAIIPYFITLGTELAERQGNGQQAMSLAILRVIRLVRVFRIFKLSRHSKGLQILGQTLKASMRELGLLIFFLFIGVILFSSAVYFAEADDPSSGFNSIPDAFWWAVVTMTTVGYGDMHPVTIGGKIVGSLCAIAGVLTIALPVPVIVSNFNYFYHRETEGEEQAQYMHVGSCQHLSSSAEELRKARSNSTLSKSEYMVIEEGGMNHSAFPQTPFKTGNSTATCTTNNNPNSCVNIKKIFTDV

As for `CCCC[C@H](NC(=O)[C@H](CC(=O)O)NC(=O)[C@H](CCCC)NC(=O)[C@@H](N)CC(N)=O)C(=O)N[C@@H](CCCNC(=N)N)C(=O)N[C@H]1CSSC[C@@H]2NC(=O)[C@H](CCCCN)NC(=O)CNC(=O)[C@H](Cc3ccccc3)NC(=O)[C@H]([C@@H](C)CC)NC(=O)[C@H](CO)NC(=O)CNC(=O)[C@H]([C@@H](C)CC)NC(=O)[C@H](C)NC(=O)[C@H](CCCCN)NC(=O)[C@H](CC(C)C)NC(=O)[C@@H]3CSSC[C@@H](C(=O)N[C@@H](Cc4ccc(O)cc4)C(=O)N4CCC[C@H]4C(=O)N[C@@H](CCCNC(=N)N)C(N)=O)NC(=O)[C@H](CCCCN)NC(=O)[C@H](CSSC[C@H](NC(=O)[C@H](CCC(=O)O)NC(=O)[C@H](C(C)C)NC(=O)[C@H](CO)NC(=O)[C@H](C)NC(=O)[C@H](CO)NC1=O)C(=O)N[C@@H](CCCCN)C(=O)N[C@@H](CCC(N)=O)C(=O)N[C@@H](CCCCN)C(=O)N3)NC(=O)[C@H](CCCCN)NC(=O)[C@H](CCCCN)NC(=O)[C@H](CC(N)=O)NC(=O)[C@H](CCSC)NC2=O` [Compound 39] (H-N[Nle]D[Nle]RCSASVECKQKCLKAIGSIFGKCMNKKCKCYPR-NH2; disulfide 6-27, 12-32, 16-34), the IC50 in assay [1] was determined as 0.11 nM; in assay [2] it was 0.15 nM.
In the case of `CC[C@H](C)[C@@H]1NC(=O)[C@H](C)NC(=O)[C@H](CCCCN)NC(=O)[C@H](Cc2ccc(O)cc2)NC(=O)[C@@H]2CSSC[C@@H](C(=O)N[C@@H](Cc3ccc(O)cc3)C(=O)N3CCC[C@H]3C(=O)N[C@@H](CCCNC(=N)N)C(N)=O)NC(=O)[C@H](CCCCN)NC(=O)[C@@H]3CSSC[C@H](NC(=O)[C@H](CCC(=O)O)NC(=O)[C@H](C(C)C)NC(=O)[C@H](CO)NC(=O)[C@H](C)NC(=O)[C@H](CO)NC(=O)[C@@H](NC(=O)[C@H](CCCNC(=N)N)NC(=O)[C@H](CCSC)NC(=O)[C@H](CC(=O)O)NC(=O)[C@H](CCSC)NC(=O)[C@@H](N)CC(N)=O)CSSC[C@H](NC(=O)[C@H](CCCCN)NC(=O)CNC(=O)[C@H](Cc4ccccc4)NC(=O)[C@H]([C@@H](C)CC)NC(=O)[C@H](CO)NC(=O)CNC1=O)C(=O)N[C@@H](CCSC)C(=O)N[C@@H](CC(N)=O)C(=O)N[C@@H](CCCCN)C(=O)N[C@@H](CCCCN)C(=O)N3)C(=O)N[C@@H](CCCCN)C(=O)N[C@@H](CCC(N)=O)C(=O)N[C@@H](CCCCN)C(=O)N2` [Compound 50] (H-NMDMRCSASVECKQKCYKAIGSIFGKCMNKKCKCYPR-NH2; disulfide 6-27, 12-32, 16-34), the 50% inhibitory concentration (IC50) in assay [1] was determined as 0.16 nM; in assay [2], 0.27 nM.
On the same counts, the results for `CC[C@H](C)[C@@H]1NC(=O)[C@H](C)NC(=O)[C@H](CCCCN)NC(=O)[C@H](CCCNC(=N)N)NC(=O)[C@@H]2CSSC[C@@H](C(=O)N[C@@H](Cc3ccc(O)cc3)C(=O)N3CCC[C@H]3C(=O)N[C@@H](CCCNC(=N)N)C(N)=O)NC(=O)[C@H](CCCCN)NC(=O)[C@@H]3CSSC[C@H](NC(=O)[C@H](CCC(=O)O)NC(=O)[C@H](C(C)C)NC(=O)[C@H](CO)NC(=O)[C@H](C)NC(=O)[C@H](CO)NC(=O)[C@@H](NC(=O)[C@H](CCCNC(=N)N)NC(=O)[C@H](CCSC)NC(=O)[C@H](CC(=O)O)NC(=O)[C@H](CCSC)NC(=O)[C@@H](N)CC(N)=O)CSSC[C@H](NC(=O)[C@H](CCCCN)NC(=O)CNC(=O)[C@H](Cc4ccccc4)NC(=O)[C@H]([C@@H](C)CC)NC(=O)[C@H](CO)NC(=O)CNC1=O)C(=O)N[C@@H](CCSC)C(=O)N[C@@H](CC(N)=O)C(=O)N[C@@H](CCCCN)C(=O)N[C@@H](CCCCN)C(=O)N3)C(=O)N[C@@H](CCCCN)C(=O)N[C@@H](CCC(N)=O)C(=O)N[C@@H](CCCCN)C(=O)N2` [Compound 51] (H-NMDMRCSASVECKQKCRKAIGSIFGKCMNKKCKCYPR-NH2; disulfide 6-27, 12-32, 16-34) are 0.11 nM and 0.25 nM.
In the case of `CC[C@H](C)[C@@H]1NC(=O)[C@H](Cc2ccc(O)cc2)NC(=O)[C@H](CCCCN)NC(=O)[C@H](CC(C)C)NC(=O)[C@@H]2CSSC[C@@H](C(=O)N[C@@H](Cc3ccc(O)cc3)C(=O)N3CCC[C@H]3C(=O)N[C@@H](CCCNC(=N)N)C(N)=O)NC(=O)[C@H](CCCCN)NC(=O)[C@@H]3CSSC[C@H](NC(=O)[C@H](CCC(=O)O)NC(=O)[C@H](C(C)C)NC(=O)[C@H](CO)NC(=O)[C@H](C)NC(=O)[C@H](CO)NC(=O)[C@@H](NC(=O)[C@H](CCCNC(=N)N)NC(=O)[C@H](CCSC)NC(=O)[C@H](CC(=O)O)NC(=O)[C@H](CCSC)NC(=O)[C@@H](N)CC(N)=O)CSSC[C@H](NC(=O)[C@H](CCCCN)NC(=O)CNC(=O)[C@H](Cc4ccccc4)NC(=O)[C@H]([C@@H](C)CC)NC(=O)[C@H](CO)NC(=O)CNC1=O)C(=O)N[C@@H](CCSC)C(=O)N[C@@H](CC(N)=O)C(=O)N[C@@H](CCCCN)C(=O)N[C@@H](CCCCN)C(=O)N3)C(=O)N[C@@H](CCCCN)C(=O)N[C@@H](CCC(N)=O)C(=O)N[C@@H](CCCCN)C(=O)N2` [Compound 55] (H-NMDMRCSASVECKQKCLKYIGSIFGKCMNKKCKCYPR-NH2; disulfide 6-27, 12-32, 16-34), the IC50 in assay [1] and in assay [2] was 0.12 nM each time.
Turning to `CCCC[C@@H]1NC(=O)[C@@H]2CSSC[C@H](NC(=O)[C@H](CCCNC(=N)N)NC(=O)[C@H](CCCC)NC(=O)[C@H](CC(=O)O)NC(=O)[C@H](CCCC)NC(=O)[C@@H](N)Cc3c[nH]cn3)C(=O)N[C@@H](CO)C(=O)N[C@@H](C)C(=O)N[C@@H](CO)C(=O)N[C@@H](C(C)C)C(=O)N[C@@H](CCC(=O)O)C(=O)N[C@H]3CSSC[C@H](NC(=O)[C@H](CCCCN)NC(=O)[C@H](CCCCN)NC(=O)[C@H](CC(N)=O)NC1=O)C(=O)N[C@@H](CCCCN)C(=O)N[C@H](C(=O)N[C@@H](Cc1ccc(O)cc1)C(=O)N1CCC[C@H]1C(=O)N[C@@H](CCCNC(=N)N)C(N)=O)CSSC[C@H](NC(=O)[C@H](CCCCN)NC(=O)[C@H](CCC(N)=O)NC(=O)[C@H](CCCCN)NC3=O)C(=O)N[C@@H](CC(C)C)C(=O)N[C@@H](CCCCN)C(=O)N[C@@H](C)C(=O)N[C@@H]([C@@H](C)CC)C(=O)NCC(=O)N[C@@H](CO)C(=O)N[C@@H]([C@@H](C)CC)C(=O)N[C@@H](Cc1ccccc1)C(=O)NCC(=O)N[C@@H](CCCCN)C(=O)N2` [Compound 64] (H-H[Nle]D[Nle]RCSASVECKQKCLKAIGSIFGKC[Nle]NKKCKCYPR-NH2; disulfide 6-27, 12-32, 16-34), the IC50 came to 0.12 nM in assay [1] and 0.25 nM in assay [2].
The corresponding values for `CCCC[C@@H]1NC(=O)[C@@H]2CSSC[C@H](NC(=O)[C@H](CCCNC(=N)N)NC(=O)[C@H](CCCC)NC(=O)[C@H](CC(=O)O)NC(=O)[C@H](CCCC)NC(=O)[C@@H](N)Cc3ccc(O)cc3)C(=O)N[C@@H](CO)C(=O)N[C@@H](C)C(=O)N[C@@H](CO)C(=O)N[C@@H](C(C)C)C(=O)N[C@@H](CCC(=O)O)C(=O)N[C@H]3CSSC[C@H](NC(=O)[C@H](CCCCN)NC(=O)[C@H](CCCCN)NC(=O)[C@H](CC(N)=O)NC1=O)C(=O)N[C@@H](CCCCN)C(=O)N[C@H](C(=O)N[C@@H](Cc1ccc(O)cc1)C(=O)N1CCC[C@H]1C(=O)N[C@@H](CCCNC(=N)N)C(N)=O)CSSC[C@H](NC(=O)[C@H](CCCCN)NC(=O)[C@H](CCC(N)=O)NC(=O)[C@H](CCCCN)NC3=O)C(=O)N[C@@H](CC(C)C)C(=O)N[C@@H](CCCCN)C(=O)N[C@@H](C)C(=O)N[C@@H]([C@@H](C)CC)C(=O)NCC(=O)N[C@@H](CO)C(=O)N[C@@H]([C@@H](C)CC)C(=O)N[C@@H](Cc1ccccc1)C(=O)NCC(=O)N[C@@H](CCCCN)C(=O)N2` [Compound 65] (H-Y[Nle]D[Nle]RCSASVECKQKCLKAIGSIFGKC[Nle]NKKCKCYPR-NH2; disulfide 6-27, 12-32, 16-34) are 0.12 nM and 0.14 nM.
Take `CCCC[C@H](NC(=O)[C@H](CC(=O)O)NC(=O)[C@H](CCCC)NC(=O)[C@@H](N)CO)C(=O)N[C@@H](CCCNC(=N)N)C(=O)N[C@H]1CSSC[C@@H]2NC(=O)[C@H](CCCCN)NC(=O)CNC(=O)[C@H](Cc3ccccc3)NC(=O)[C@H]([C@@H](C)CC)NC(=O)[C@H](CO)NC(=O)CNC(=O)[C@H]([C@@H](C)CC)NC(=O)[C@H](C)NC(=O)[C@H](C)NC(=O)[C@H](CC(C)C)NC(=O)[C@@H]3CSSC[C@@H](C(=O)N[C@@H](Cc4ccc(O)cc4)C(=O)N4CCC[C@H]4C(=O)N[C@@H](CCCNC(=N)N)C(N)=O)NC(=O)[C@H](CCCCN)NC(=O)[C@H](CSSC[C@H](NC(=O)[C@H](CCC(=O)O)NC(=O)[C@H](C(C)C)NC(=O)[C@H](CO)NC(=O)[C@H](C)NC(=O)[C@H](CO)NC1=O)C(=O)N[C@@H](C)C(=O)N[C@@H](CCC(N)=O)C(=O)N[C@@H](CCCCN)C(=O)N3)NC(=O)[C@H](CCCCN)NC(=O)[C@H](CCCCN)NC(=O)[C@H](CC(N)=O)NC(=O)[C@H](CCSC)NC2=O` [Compound 80] (H-S[Nle]D[Nle]RCSASVECAQKCLAAIGSIFGKCMNKKCKCYPR-NH2; disulfide 6-27, 12-32, 16-34): the IC50 in assay [1] is 0.15 nM; in assay [2] it was 0.16 nM.
Take `CC[C@H](C)[C@@H]1NC(=O)[C@H](C)NC(=O)[C@H](C)NC(=O)[C@H](CC(C)C)NC(=O)[C@@H]2CSSC[C@@H](C(=O)N[C@@H](Cc3ccc(O)cc3)C(=O)N3CCC[C@H]3C(=O)N[C@@H](CCCNC(=N)N)C(=O)O)NC(=O)[C@H](CCCCN)NC(=O)[C@@H]3CSSC[C@H](NC(=O)[C@H](CCC(=O)O)NC(=O)[C@H](C(C)C)NC(=O)[C@H](CO)NC(=O)[C@H](C)NC(=O)[C@H](CO)NC(=O)[C@@H](NC(=O)[C@H](CCCNC(=N)N)NC(=O)[C@H](CC(C)C)NC(C)=O)CSSC[C@H](NC(=O)[C@H](CCCCN)NC(=O)CNC(=O)[C@H](Cc4ccccc4)NC(=O)[C@H]([C@@H](C)CC)NC(=O)[C@H](CO)NC(=O)CNC1=O)C(=O)N[C@@H](CCSC)C(=O)N[C@@H](CC(N)=O)C(=O)N[C@@H](CCCCN)C(=O)N[C@@H](CCCCN)C(=O)N3)C(=O)N[C@@H](CCCCN)C(=O)N[C@@H](CCC(N)=O)C(=O)N[C@@H](CCCCN)C(=O)N2` [Compound 116] (Ac-LRCSASVECKQKCLAAIGSIFGKCMNKKCKCYPR-OH; disulfide 3-24, 9-29, 13-31): the IC50 in assay [1] is 0.18 nM; in assay [3] it was ≤ 1 nM; in assay [3] (inhibition of IL-17A release, thapsigargin, 24 Hr, at least 2 replicates) it was 0.36 nM.

The IC50 is the concentration at which inhibition is half-maximal.
